# Measured values published in patent US20170101669A1, “Nucleic Acid Based Sensor and Methods Thereof” (National Centre for Biological Sciences, priority 2014, published 2017).
# Legend:
# [1] = system: endosomal compartments of Drosophila hemocytes; assay: Chloride concentration in endosomal compartments of hemocytes under chemical perturbation, measured with Clensor; assay type: cell-based; details: +NPPB
# Protocol: Hemocytes are washed with 1×M1 buffer (150 mM NaCl, […], 1 mM CaCl2, 1 mM MgCl2, 20 mM HEPES pH 7.2) prior to labeling. Hemocytes are incubated with 2 μM of Clensor sample (diluted in 1×M1 buffer) for 5-10 minutes (depending on the signal again, *for measurements in early endosomes 5 min pulse is given*) and then washed 3-4 times with 1×M1 and then chased for an additional 5 to 120 minutes. For a chase longer than 5 minutes, 1×M1 is replaced by complete insect medium and transferred to a 20° C. incubator. For 5 minute chases, cells are washed and then imaged in 1×M1.
# For Chloride ion […] measurement experiments, after pulsing with Clensor, cells are chased for (i) 5 min (Early Endosome), (ii) 60 min (Late endosome) and (iii) 120 min (Lysosome). Each set of cells are then imaged live, acquiring two images for each set of cells. (i) Ex=480/20, Dichroic=500-600 BP, Em=535/40 and (ii) Ex=640/30, Dichroic=665 LP, Em=690/50.
# Hemocytes are pulsed with 2 μM of Clensor sample for 30 minutes (for development of a signal), washed 3-4 times with 1×M1 followed by a 5 minute chase in same medium. Cells are then fixed with 200 μL 2.5% paraformaldehyde (PFA) for 20 minutes at room temperature, quickly washed 3 times and retained in 1×M1. To obtain intracellular Chloride ion (Cl^−) calibration curve, perfusate and endosomal Chloride ion (Cl^−) concentration are equalized by incubating the previously fixed cells in 120 mM KCl/KNO3, 20 mM NaCl/NaNO3, 1 mM CaCl2/Ca(NO3)2, 1 mM MgCl2/Mg(NO3)2, and 10 mM HEPES at pH 7.2, with Chloride ion (Cl^−) concentration from about 0-80 mM (NO3^− replacing Cl^−) for about 3 hours at room temperature. Chloride clamping solution contains Nigericin (10 μM)+Valinomycin (10 μM)+CCCP (5 μM)+Monensin (10 μM)+Bafilomycin (200 nM). The cells are imaged in the same buffer.
# Here, the hemocytes are treated with a non-specific chloride ion channel blocker NPPB (5-nitro-2-(3-phenylpropylamino)-benzoate).
# Drosophila hemocytes = assay: Bafilomycin perturbation of endosomal chloride concentration and pH in hemocytes; assay type: cell-based
# Protocol: Bafilomycin is used to perturb endosomal Chloride ion concentration [Cl^−] and these perturbations are followed by changes in R/G ratios in Clensor labeled endosomes of Drosophila hemocytes. pH is simultaneously measured in this system by pulsing with about 2 mg/mL 10 kDa FITC-dextran (FD10) for about 5 minutes at room temperature and chased for about 120 minutes at about 20° C. The cells are then incubated with 1×M1 buffer containing about 200 nM Bafilomycin followed by a 120 minute chase at about 20° C. in the same buffer.
# Intracellular pH is measured by the Dual Excitation Method. λEx480/λEx 430 emission ratios show about 2.1 fold decrease in pH as a function of time till about 120 minutes post endocytosis, indicating the expected decrease in pH in hemocytes (FIG. 16a, black). Upon Bafilomycin treatment, endosomal pH is reversed as given by gradual increase (˜2.2 fold) in λEx480/λEx 430 emission ratios (FIG. 16a, black). […]
# FIG. 16 depicts the integrity of Clensor during endosomal maturation. […] Chloride concentrations and pH values are monitored after Bafilomycin treatment. […] Endosomal pH is monitored by ratios of the intensity at 530 nm when the FITC is excited at 480 nm and 430 nm (λex480/λex 430). […]
Molecule,"Mean [Cl−] ± s.e.m, EE ([1]; early endosomes, 5 min)","Mean [Cl−] ± s.e.m, LE ([1]; late endosomes, 60 min)","Mean [Cl−] ± s.e.m, LY ([1]; lysosomes, 120 min)","increase in λEx480/λEx 430 emission ratios (reversal of endosomal pH) (Drosophila hemocytes; 200 nM Bafilomycin, FITC-dextran labeled hemocytes, after 120 min chase)",change of R/G ratios of Clensor labeled endosomes (endosomal [Cl−]) (Drosophila hemocytes; after 200 nM Bafilomycin treatment)
"O=C(O)c1cc([N+](=O)[O-])ccc1NCCCc1ccccc1 [NPPB, 5-nitro-2-(3-phenylpropylamino)-benzoate]",9.3 ± 1.5 mM,33.8 ± 2.5 mM,86.5 ± 3.5 mM,–,–
Bafilomycin,–,–,–,~2.2 fold,R/G ratios gradually decrease
